From US11180499B2, “Phosphodiesterase inhibitors” (BOARD OF REGENTS OF THE UNIVERSITY OF NEBRASKA, priority 2018, dated 2021)

Tests used:
PDE4B = molecular target: T1, PDE4B (Homo sapiens, UniProt Q07343); experiment: In vitro PDE4 inhibition study, PDE4B (BPS Bioscience); type: binding; details: for inhibition at 10 µM: values in parentheses
T1 construct: purchased BPS Bioscience, San Diego
Method: (§1) The IC50 values of Compound 8 on PDE4 isoforms were determined by BPS Bioscience, San Diego. In brief, coat proteins (PDE4 isoforms) were added into the plate in a volume of 50 μl (2-5 ng/μl) at 4° C. overnight. The next day, Compound 8 was added to the coated plate with varying concentrations followed by addition of the corresponding biotinylated binding partner. The reaction was incubated for 2 hours at room temperature. Binding assays were performed in duplicate at each concentration and the plates were read by using Synergy 2 BioTek plate reader. The luminescence data were analyzed using the Graphpad Prism. […] Data for a reference compounds or antibodies are included as a control for inhibition. “ND” indicates the compound was not tested.

PDE4D = molecular target: T2, PDE4D (Homo sapiens, UniProt Q08499); experiment: In vitro PDE4 inhibition study, PDE4D (BPS Bioscience); type: binding; details: values in parentheses
T2 construct: purchased BPS Bioscience, San Diego
Method: as §1

T1 sequence (Q07343 whole entry): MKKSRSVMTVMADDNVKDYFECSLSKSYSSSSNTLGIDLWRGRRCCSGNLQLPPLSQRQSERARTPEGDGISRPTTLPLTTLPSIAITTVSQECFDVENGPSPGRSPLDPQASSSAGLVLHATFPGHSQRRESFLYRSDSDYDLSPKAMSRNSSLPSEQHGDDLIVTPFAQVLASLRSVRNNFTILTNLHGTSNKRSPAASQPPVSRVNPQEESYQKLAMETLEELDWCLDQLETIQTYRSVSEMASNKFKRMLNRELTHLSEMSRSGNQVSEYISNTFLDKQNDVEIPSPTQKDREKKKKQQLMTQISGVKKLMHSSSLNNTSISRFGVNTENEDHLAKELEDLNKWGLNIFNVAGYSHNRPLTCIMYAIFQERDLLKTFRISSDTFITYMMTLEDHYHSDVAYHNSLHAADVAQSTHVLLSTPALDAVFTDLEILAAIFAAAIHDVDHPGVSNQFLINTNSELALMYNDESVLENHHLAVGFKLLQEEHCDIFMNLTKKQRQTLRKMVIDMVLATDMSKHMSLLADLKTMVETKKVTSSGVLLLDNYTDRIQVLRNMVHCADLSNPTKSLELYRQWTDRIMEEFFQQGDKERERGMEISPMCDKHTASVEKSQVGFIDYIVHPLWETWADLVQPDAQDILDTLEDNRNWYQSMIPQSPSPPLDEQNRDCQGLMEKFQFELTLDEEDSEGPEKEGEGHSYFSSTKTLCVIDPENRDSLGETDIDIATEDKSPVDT
T2 sequence (Q08499 whole entry): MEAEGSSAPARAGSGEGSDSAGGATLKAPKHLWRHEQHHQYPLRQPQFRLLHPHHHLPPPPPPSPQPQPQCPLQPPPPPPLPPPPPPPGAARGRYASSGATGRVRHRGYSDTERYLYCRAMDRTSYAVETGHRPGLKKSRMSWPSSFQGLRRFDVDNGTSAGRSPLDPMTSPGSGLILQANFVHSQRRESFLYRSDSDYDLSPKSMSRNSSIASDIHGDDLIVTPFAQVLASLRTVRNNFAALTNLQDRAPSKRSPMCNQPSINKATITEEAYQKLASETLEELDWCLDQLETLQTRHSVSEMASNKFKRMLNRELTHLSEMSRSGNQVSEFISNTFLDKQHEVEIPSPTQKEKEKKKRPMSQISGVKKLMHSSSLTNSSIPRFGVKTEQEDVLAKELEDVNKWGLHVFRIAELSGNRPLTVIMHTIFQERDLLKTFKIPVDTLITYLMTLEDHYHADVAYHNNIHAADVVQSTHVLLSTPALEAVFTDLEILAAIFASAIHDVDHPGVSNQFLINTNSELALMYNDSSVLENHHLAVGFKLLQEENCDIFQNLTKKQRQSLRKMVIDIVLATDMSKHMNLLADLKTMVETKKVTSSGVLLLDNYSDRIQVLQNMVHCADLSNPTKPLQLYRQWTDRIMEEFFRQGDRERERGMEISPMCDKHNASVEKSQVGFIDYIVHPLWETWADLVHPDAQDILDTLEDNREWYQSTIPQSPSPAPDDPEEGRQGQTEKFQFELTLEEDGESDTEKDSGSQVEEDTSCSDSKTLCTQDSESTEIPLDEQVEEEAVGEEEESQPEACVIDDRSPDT

Compound	IC50 (PDE4B)	inhibition at 10 µM (PDE4D)	inhibition at 10 µM (PDE4B)
O=C(NC1CC1)c1cc2cccnc2n1-c1cc(F)c(Cl)c(F)c1 [Compound 21, 1-(4-chloro-3,5-difluorophenyl)-N-cyclopropyl-1H-pyrrolo[2,3-b]pyridine-2-carboxamide]	1400 nM	53%	–
O=C(NC1CC1)c1cc2cccnc2n1-c1ccc(Cl)c(F)c1 [Compound 33, 1-(4-chloro-3-fluorophenyl)-N-cyclopropyl-1H-pyrrolo[2,3-b]pyridine-2-carboxamide]	970 nM	24%	–
O=C(c1cc2cccnc2n1-c1ccc(Cl)c(Cl)c1)N1CCC2(CCC2)C1 [Compound 13, (1-(3,4-dichlorophenyl)-1H-pyrrolo[2,3-b]pyridin-2-yl)(6-azaspiro[3.4]octan-6-yl) methanone]	980 nM	–	–
N#Cc1c(F)cc(-n2c(C(=O)NC3CCC3)cc3cccnc32)cc1F [Compound 27, 1-(4-cyano-3,5-difluorophenyl)-N-cyclobutyl-1H-pyrrolo[2,3-b]pyridine-2-carboxamide]	1800 nM	16.6%	–
O=C(c1cc2cccnc2n1-c1ccc(Cl)c(Cl)c1)N1CC2(CCNCC2)C1 [Compound 15, (1-(3,4-dichlorophenyl)-1H-pyrrolo[2,3-b]pyridin-2-yl)(2,7-diazaspiro[3.5]nonan-2-yl) methanone]	–	13%	33%
COc1ncc(-n2c(C(=O)N3CC(F)C3)cc3cccnc32)cc1Cl [Compound 39, (1-(5-chloro-6-methoxypyridin-3-yl)-1H-pyrrolo[2,3-b]pyridin-2-yl)(3-fluoroazetidin-1-yl) methanone]	490 nM	–	–
O=C(c1cc2cccnc2n1-c1ccc(Cl)c(Cl)c1)N1CCS(=O)(=O)CC1 [Compound 11, (1-(3,4-dichlorophenyl)-1H-pyrrolo[2,3-b]pyridin-2-yl)(1,1-dioxidothiomorpholino) methanone]	–	17%	39%
O=C(NC1CCC1)c1cc2cccnc2n1-c1ccc(Cl)c(Cl)c1 [Compound 2, N-cyclobutyl-1-(3,4-dichlorophenyl)-1H-pyrrolo[2,3-b]pyridine-2-carboxamide]	1100 nM	24%	–
O=C(NC1CC1)c1cc2cccnc2n1-c1ccc(Cl)cc1 [Compound 31, 1-(4-chlorophenyl)-N-cyclopropyl-1H-pyrrolo[2,3-b]pyridine-2-carboxamide]	2900 nM	10.1%	–
O=C(c1cc2cccnc2n1-c1ccc(Cl)c(Cl)c1)N1CCC2(CCC2)CC1 [Compound 12, (1-(3,4-dichlorophenyl)-1H-pyrrolo[2,3-b]pyridin-2-yl)(7-azaspiro[3.5]nonan-7-yl) methanone]	–	29%	50%
N#Cc1c(F)cc(-n2c(C(=O)NC3CC(F)C3)cc3cccnc32)cc1F (stereo not drawn) [Compound 28, 1-(4-cyano-3,5-difluorophenyl)-N-(3-fluorocyclobutyl)-1H-pyrrolo[2,3-b]pyridine-2-carboxamide]	–	12.1%	58%
COc1ccc(-n2c(C(=O)N3CC(F)C3)cc3cccnc32)cc1 [Compound 38, (3-fluoroazetidin-1-yl)(1-(4-methoxyphenyl)-1H-pyrrolo[2,3-b]pyridin-2-yl)methanone]	–	37%	67%
Cc1ccc(-n2c(C(=O)NC3CCC3)cc3cccnc32)cc1Cl [Compound 17, 1-(3-chloro-4-methylphenyl)-N-cyclobutyl-1H-pyrrolo[2,3-b]pyridine-2-carboxamide]	2300 nM	43%	–
O=C(c1cc2cccnc2n1-c1ccc(Cl)c(Cl)c1)N1CC(F)C1 [Compound 7, (1-(3,4-dichlorophenyl)-1H-pyrrolo[2,3-b]pyridin-2-yl)(3-fluoroazetidin-1-yl)methanone]	230 nM	77%	–
Cc1ccc(-n2c(C(=O)N3CC(F)C3)cc3cccnc32)cc1Cl [Compound 20, (1-(3-chloro-4-methylphenyl)-1H-pyrrolo[2,3-b]pyridin-2-yl)(3-fluoroazetidin-1-yl) methanone]	910 nM	60%	–
N#Cc1c(F)cc(-n2c(C(=O)NC3CC(F)(F)C3)cc3cccnc32)cc1F [Compound 29, 1-(4-cyano-3,5-difluorophenyl)-N-(3,3-difluorocyclobutyl)-1H-pyrrolo[2,3-b]pyridine-2-carboxamide]	–	18%	47%

Compound	IC50 (PDE4B)	inhibition at 10 µM (PDE4D)	inhibition at 10 µM (PDE4B)
N#Cc1c(F)cc(-n2c(C(=O)N3CC(F)C3)cc3cccnc32)cc1F [Compound 30, 2,6-difluoro-4-(2-(3-fluoroazetidine-1-carbonyl)-1H-pyrrolo[2,3-b]pyridin-1-yl)benzonitrile]	430 nM	66%	–
O=C(c1cc2cccnc2n1-c1ccc(Cl)c(Cl)c1)N1CCC1 [Compound 6, Azetidin-1-yl(1-(3,4-dichlorophenyl)-1H-pyrrolo[2,3-b]pyridin-2-yl)methanone]	110 nM	–	–
O=C(NC1CC(F)C1)c1cc2cccnc2n1-c1ccc(Cl)c(Cl)c1 (stereo not drawn) [Compound 3, 1-(3,4-Dichlorophenyl)-N-(3-fluorocyclobutyl)-1H-pyrrolo[2,3-b]pyridine-2-carboxamide]	600 nM	36%	–
O=C(NCc1ccco1)c1cc2cccnc2n1-c1ccc(Cl)c(Cl)c1 [Compound 5, 1-(3,4-dichlorophenyl)-N-(furan-2-ylmethyl)-1H-pyrrolo[2,3-b]pyridine-2-carboxamide]	–	52%	70%
O=C(c1cc2cccnc2n1-c1ccc(Cl)c(F)c1)N1CC(F)C1 [Compound 37, (1-(4-chloro-3-fluorophenyl)-1H-pyrrolo[2,3-b]pyridin-2-yl)(3-fluoroazetidin-1-yl) methanone]	610 nM	71%	–
O=C(NC1CCC1)c1cc2cccnc2n1-c1ccc(Cl)c(F)c1 [Compound 34, 1-(4-chloro-3-fluorophenyl)-N-cyclobutyl-1H-pyrrolo[2,3-b]pyridine-2-carboxamide]	1300 nM	39%	–
N#Cc1c(F)cc(-n2c(C(=O)NC3CC3)cc3cccnc32)cc1F [Compound 26, 1-(4-cyano-3,5-difluorophenyl)-N-cyclopropyl-1H-pyrrolo[2,3-b]pyridine-2-carboxamide]	1400 nM	18.5%	–
O=C(c1cc2cccnc2n1-c1ccnc(F)c1)N1CC(F)C1 [Compound 41, (3-fluoroazetidin-1-yl)(1-(2-fluoropyridin-4-yl)-1H-pyrrolo[2,3-b]pyridin-2-yl)methanone]	980 nM	–	–
O=C(c1cc2cccnc2n1-c1ccc(Cl)c(Cl)c1)N1CCCC2(CCO2)C1 (stereo not drawn) [Compound 10, (1-(3,4-dichlorophenyl)-1H-pyrrolo[2,3-b]pyridin-2-yl)(1-oxa-6-azaspiro[3.5]nonan-6-yl)methanone]	–	39%	73%
O=C(NC1CCC1)c1cc2cccnc2n1-c1cc(F)c(Cl)c(F)c1 [Compound 22, 1-(4-chloro-3,5-difluorophenyl)-N-cyclobutyl-1H-pyrrolo[2,3-b]pyridine-2-carboxamide]	1300 nM	10.7%	–
O=C(NC1CCC1)c1cc2cccnc2n1-c1ccc(Cl)cc1 [Compound 32, 1-(4-chlorophenyl)-N-cyclobutyl-1H-pyrrolo[2,3-b]pyridine-2-carboxamide]	5000 nM	28.2%	–
O=C(c1cc2cccnc2n1-c1cc(F)c(Cl)c(F)c1)N1CC(F)C1 [Compound 25, (1-(4-chloro-3,5-difluorophenyl)-1H-pyrrolo[2,3-b]pyridin-2-yl)(3-fluoroazetidin-1-yl) methanone]	210 nM	62%	–
O=C(NC1CC(F)(F)C1)c1cc2cccnc2n1-c1ccc(Cl)c(Cl)c1 [Compound 4, 1-(3,4-dichlorophenyl)-N-(3,3-difluorocyclobutyl)-1H-pyrrolo[2,3-b]pyridine-2-carboxamide]	–	11.6%	23%
COc1c(F)cc(-n2c(C(=O)N3CC(F)C3)cc3cccnc32)cc1F [Compound 42, (1-(3,5-difluoro-4-methoxyphenyl)-1H-pyrrolo[2,3-b]pyridin-2-yl)(3-fluoroazetidin-1-yl) methanone]	410 nM	–	–
O=C(c1cc2cccnc2n1Cc1ccc(Cl)c(Cl)c1)N1CC(F)C1 [Compound 43, (1-(3,4-dichlorobenzyl)-1H-pyrrolo[2,3-b]pyridin-2-yl)(3-fluoroazetidin-1-yl)methanone]	–	58%	72%
